Data set [1] can be described thus: Metabolite profile of [14C] compound (I) in rat hepatocyte incubations. In kind it is in vitro ADME, Sprague-Dawley rat. To be noted: (Ia) 20 μM, 3 h, 37° C., ~2 million cells/mL; relative distribution in radiochromatographic profile. On the procedure: (§1) The compound of formula (I) was used as the [^14C] compound (Ia) (30.4 μCi/mg, radiochemical purity 99.2%), as the monohydrate of the free base. The C-14 label was on the carbon in the 2-position of the thiazole ring.
(§2) Freshly isolated rat hepatocyte preparations were prepared from one male Sprague-Dawley rat. Rat Hepatocytes were prepared according to a standard procedure (Seglen, PO. Preparation of isolated rat liver cells. Methods Cell Biol., 1976, 13: 29-83). Cryopreserved cynomolgus monkey hepatocytes (male, pooled, n=6) and human hepatocytes (3 individual preparation) were purchased from In Vitro Technologies (Baltimore, Md.). Microsomes from male SD Rats (pooled, n=200, 20 mg/mL) and male cynomolgus monkeys (pooled, n=8, 20 mg/mL) were obtained from Xenotech LLC, Kansas City, Kans. Human liver microsomes (male, pooled, n=38) were from BD-Gentest, Woburn, Mass.
(§3) A 6 mM stock solution of the compound of formula (Ia) (the [^14C] of the compound of formula (I) was prepared at by dissolving 3.7 mg of the compound of formula (Ia) into 1:1 acetonitrile/DMSO. The 2 mM stock solution of the compound of formula (Ia) was obtained by diluting an aliquot of the 6 mM stock solution 3-fold with acetonitrile.
Rat hepatocyte suspensions were provided at concentrations of 9.1 million cells/mL with a viability of 90%. The cell suspension was diluted accordingly with modified Krebs-Henseleit buffer to give a final concentration of 2 million cells/mL.
(§4) Viability of the hepatocytes was checked using a Trypan Blue exclusion assay and a hemocytometer. A mixture of 0.1 mL of the hepatocyte suspension and 0.1 mL of trypan blue solution were diluted with 0.8 mL of Krebs-Henseleit buffer. The solution was gently mixed and plated onto a Levy hemocytometer (Hausser Scientific) and the viable cells (unstained) were counted under a light microscope. The viability of the hepatocytes ranged from 77% to 90% at the beginning of the incubations.
(§5) Hepatocyte incubations were conducted at 37° C. for 3 h in a NAPCO CO2 6000 incubator (VWR Scientific Products) under a 5% CO2 atmosphere using an orbital shaker at 90 rpm. For each incubation, the final concentration of compound (Ia) was 20 μM and the hepatocyte concentrations were ˜2 million cells/mL. A control incubation, in the absence of hepatocytes, was also performed for 3 h. The incubations were stopped by adding one volume of ice-cold acetonitrile. Each 0.5 mL incubation contained 0.1 M potassium phosphate buffer (pH 7.4), 2.5 mM MgCl2, 2 mg/mL microsomal protein, and 2.0 mM NADPH. The final substrate concentration was 20 μM. The mixtures were incubated in a shaking water bath at 37° C. for 15 min. Control incubations in the absence of microsomes or NADPH were performed for each species. The reactions were stopped with the addition of 1 mL of ice-cold acetonitrile.
HPLC was performed on a Waters Alliance™ system equipped with Waters 2695 pumps and a photodiode array detector (Waters 2996). A Phenomenex Synergy Polar-RP® column (4.6×250 mm, 5 micron) was used for metabolite separation. All HPLC analyses were performed at 1 mL/min flow rate at room temperature. Two HPLC mobile phase and gradient systems were used because all metabolites could not be completely separated on either of the individual HPLC systems. The first system consisted of (A) water with 0.1% formic acid and (B) acetonitrile with 0.1% formic acid as mobile phase. The linear gradient was as follows: 0 min, 20% B; 1 min, 20% B; 41 min, 35% B; 42 min, 90% B; 44 min, 90% B. The column was re-equilibrated at 20% B for 6 min before the next injection. The second HPLC system was used to separate certain co-eluting metabolites that could not be separated by the first system. The mobile phase consisted of (A) water with 0.1% triflouroacetic acid (TFA) and (B) acetonitrile with 0.1% TFA. The gradient was as follows: 0 min, 20% B; 1 min, 20% B; 51 min, 35% B; 52 min, 90% B; 54 min 90% B. The column was equilibrated at 20% B for 6 min prior to the next injection. […]

Data set [2] can be described thus: Metabolite profile of [14C] compound (I) in human hepatocyte incubations. In kind it is in vitro ADME. The note with it: (Ia) 20 μM, 3 h, 37° C., ~2 million cells/mL; relative distribution in radiochromatographic profile. How it is done:
as §1, §2, §3
Human (3 vials from 3 individuals) and monkey cryopreserved hepatocytes were thawed according to the procedure provided by In Vitro Technologies. Briefly, the caps of the cryovials were loosened to release any trapped liquid nitrogen and kept on ice for 2 min. The caps were tightened and the vials were immersed in a 37° C. water bath for 75-90 sec with gentle shaking. The thawed samples (3 cryovials/[…] for each 50 mL tube) were transferred into 25 mL pre-warmed Krebs-Henseleit buffer in a 50 mL tube and gently inverted. The suspensions were evenly divided into 2 tubes and diluted to 40 mL with pre-warmed Krebs-Henseleit buffer. The tubes were centrifuged in an Eppendorf 5810R centrifuge (Hamburg, Germany) at 200 rpm at 4° C. for 10 min. The supernatant was discarded and the pellet gently suspended in 2 mL of Krebs-Henseleit buffer. All the tubes were combined into one tube, rinsing the empty tubes with 1 mL Krebs-Henseleit buffer. The cells were counted, checked for viability and diluted accordingly with modified Krebs-Henseleit buffer to give a final concentration of 2 million viable cells/mL.
as §4, §5
HPLC was performed on a Waters Alliance™ system equipped with Waters 2695 pumps and a photodiode array detector (Waters 2996). A Phenomenex Synergy Polar-RP® column (4.6×250 mm, 5 micron) was used for metabolite separation. […]

Each structure is given as a SMILES string.

The values below come from patent publication US20060211705A1, “'N-(2-chloro-6-methylphenyl)-2-[[6-[4-(2-hydroxyethyl)-1-piperazinyl]-2-methyl-4-pyrimidinyl]amino]-5-thiazolecarboxamides metabolites” (priority 2005, published 2006).

Turning to `Cc1nc(Nc2ncc(C(=O)Nc3c(C)cccc3Cl)s2)cc(N2CCN(CCO)CC2)n1` [Parent (I), N-(2-Chloro-6-methylphenyl)-2-[[6-[4-(2-hydroxyethyl)-1-piperazinyl]-2-methyl-4-pyrimidinyl]amino]-5-thiazolecarboxamide], the “% of Radioactivity in Hepatocytes, Rat” value in data set [1] is 88.8%. Moreover, the “% of Radioactivity in Hepatocytes, Human” value in data set [2] is 77.7%.
The corresponding values for `Cc1nc(Nc2ncc(C(=O)Nc3c(C)cccc3Cl)s2)cc(N2CCNCC2)n1` [M4 (II)] are 1.6% and 1.0%.
The corresponding values for `Cc1nc(Nc2ncc(C(=O)Nc3c(C)cccc3Cl)s2)cc(N2CC[N+]([O-])(CCO)CC2)n1` [M5 (III)] are 2.7% and 2.3%.
The corresponding values for `Cc1nc(Nc2ncc(C(=O)Nc3c(C)cccc3Cl)s2)cc(N2CCN(CC(=O)O)CC2)n1` [M6 (IV), 2-(4-(6-(5-((2-Chloro-6-methylphenyl)carbamoyl)thiazol-2-ylamino)-2-methylpyrimidin-4-yl)piperazin-1-yl)acetic acid] are 4.9% and 9.2%.
For `Cc1nc(Nc2ncc(C(=O)Nc3c(C)cc(O)cc3Cl)s2)cc(N2CCN(CCO)CC2)n1` [M20 (V)], the “% of Radioactivity in Hepatocytes, Rat” value in data set [1] is 1.1%. Further, the “% of Radioactivity in Hepatocytes, Human” value in data set [2] came out at 2.6%.
The matching figures for `Cc1nc(Nc2ncc(C(=O)Nc3c(Cl)cccc3CO)s2)cc(N2CCN(CCO)CC2)n1` [M24 (VI), N-(2-chloro-6-(hydroxymethyl)phenyl)-2-(6-(4-(2-hydroxyethyl)piperazin-1-yl)-2-methylpyrimidin-4-ylamino)thiazole-5-carboxamide]: 1.1% and 2.6%.
